Read-outs that look alike come from different tables or passages of the source.
Experiment: TMS crossover study, pharmacokinetic analysis
Assay type: in vivo, human
Conditions: male, human, plasma, oral, 20 mg; for Vd/F: read-out: Vz/F normalized
Method: A randomized, double-blind, placebo-controlled, transcranial magnetic stimulation (TMS) crossover study investigated the safety, tolerability, pharmacokinetics (PK), and pharmacodynamics (PD) of single doses of Compound A in healthy right-handed male subjects.
Twenty healthy right-handed male subjects were enrolled and randomized in a blinded fashion to receive a single oral dose of 20 mg Compound A or placebo (1:1 randomization ratio) on Day 1, then were crossed over to receive a single dose of the other treatment on Day 7.
Subjects were screened within 27 days prior to entering the study on Day 1. For Period 1, subjects were admitted to the study unit and dosed on Day 1, and discharged on Day 2. For Period 2, following a washout of 6 days, the same subjects were again admitted to the study unit and dosed on Day 7, and discharged on Day 8. All subjects returned to the clinical unit for an outpatient visit on Day 14, and received a follow-up telephone call on Day 37.
Subjects were dosed in a fed state, but the timing of dosing relative to meals was changed during the study, and varied between a high fat or standard meal eaten either 2 h or 30 minutes prior to dosing, and a high fat or standard meal eaten 1 h or 2.5 h after dosing.
The PK parameters for this study were summarized in two ways. Firstly, PK parameters were calculated where possible using the PK samples collected during each 24 h sampling period for Period 1 and Period 2 separately. Secondly, PK parameters were determined using samples beyond the 24 h sampling period (i.e., from Day 7/8 and/or Day 14). For subjects who received Compound A in the first period, PK samples taken prior to placebo treatment provided additional PK timepoints at >24 h. For subjects who received Compound A in the second period, there was no >24 h PK timepoint until a Day 14 PK sample was added. […] The full PK profile data set consists of the 16 subjects for whom PK samples were taken at >24 h post-dose. For discussion of the PK parameters below, the full PK profile data set was generally used, because it allowed more accurate estimation of PK parameters.
Initially, subjects were dosed 2 hours after a high fat meal with a relatively high fat lunch provided 1 hour after dosing. After blinded review of the PK profiles in the initial 8 subjects, the fat content of the lunch was reduced in an attempt to reduce the time to Tmax, so that the Cmax would fall within the timeframe of TMS measurements. In addition, the timing of the meal relative to dose was changed from 2 hours prior, to 30 minutes prior to dose and subsequently the fat content of the breakfast was reduced. All these changes were made in attempts to provide higher plasma levels during the TMS assessment periods. The timing and type of meal for each subject is specified in Table 13. […] As such the PK data is presented without categorization according to meal content, or relative timing of the meal.

[1] = Full PK Profile Data Set (N=16), Mean ± SD
[2] = Full PK Profile Data Set (N=16), Range

In the case of Cc1cc(N2CCc3cc(F)ccc3C2)cc(C)c1NC(=O)CC(C)(C)C [Compound A, N-[4-(6-fluoro-3,4-dihydro-1H-isoquinolin-2-yl)-2,6-dimethylphenyl]-3,3-dimethylbutanamide], the Tmax (Full PK Profile (N=16), Median) is reported as 6.83 h, the Tmax (Full PK Profile (N=16), Range) is reported as 1.92 to 12 h and the half-life (Full PK Profile (N=16), Range) is reported as 48.2 to 306 h. It also gave an AUC(0-t) (Full PK Profile (N=16), Range, read-out: AUC0-24) of 383 to 951 ng·h/mL, a Cmax (Full PK Profile (N=16), Range, read-out: Cmax) of 29.9 to 79.4 ng/mL and an AUC(0-inf) [1] of 3160 ng·h/mL. The MRT inf [1] was 102 h, the MRT last [1] was 77.4 ± 23.7 h and the half-life [1] was 127 h. The AUC(0-t) (Full PK Profile Data Set (N=16), Mean ± SD, read-out: AUClast) was 2370 ng·h/mL, the CL/F (Full PK Profile Data Set (N=16), Mean ± SD, read-out: CL/F normalized (converted)) was 1.62 mL/min/kg and the Vd/F [1] was 16.3 L/kg. For the same molecule, the AUC(0-inf) [2] was 1920 ± 7390 ng·h/mL, the MRT inf [2] was 33 to 304 h and the MRT last [2] was 48.2 ± 122 h. The half-life [2] was 48.2 to 306 h, the AUC(0-t) (Full PK Profile Data Set (N=16), Range, read-out: AUClast) was 1580 ± 4400 ng·h/mL and the CL/F (Full PK Profile Data Set (N=16), Range, read-out: CL/F normalized (converted)) was 0.672 mL/min/kg. For the same molecule, the Vd/F [2] was 6.4 ± 33.8 L/kg, the half-life (Overall (N=20), 24 h sampling, Mean ± SD) was 11.1 ± 2.6 h and the half-life (Overall (N=20), 24 h sampling, Range) was 8.01 to 14.9 h. For the same molecule, the AUC(0-t) (Overall (N=20), Mean ± SD, read-out: AUC0-24) was 687 ± 160 ng·h/mL, the Cmax (Overall (N=20), Mean ± SD, read-out: Cmax) was 59.2 ± 13.8 ng/mL and the Tmax (Overall (N=20), Median) was 7.8 h. For the same molecule, the Tmax (Overall (N=20), Range) was 1.9 to 12 h, the AUC(0-t) (Overall (N=20), Range, read-out: AUC0-24) was 358 to 951 ng·h/mL and the Cmax (Overall (N=20), Range, read-out: Cmax) was 29.9 to 79.4 ng/mL. For the same molecule, the half-life (Period 1 (N=10), 24 h sampling, Mean ± SD) was 11.4 ± 2.6 h, the half-life (Period 1 (N=10), 24 h sampling, Range) was 8.46 to 14.9 h and the AUC(0-t) (Period 1 (N=10), Mean ± SD, read-out: AUC0-24) was 693 ± 184 ng·h/mL. The Cmax (Period 1 (N=10), Mean ± SD, read-out: Cmax) was 60.2 ± 17.3 ng/mL, the Tmax (Period 1 (N=10), Median) was 6.94 h and the Tmax (Period 1 (N=10), Range) was 1.92 to 12 h. The AUC(0-t) (Period 1 (N=10), Range, read-out: AUC0-24) was 383 to 951 ng·h/mL, the Cmax (Period 1 (N=10), Range, read-out: Cmax) was 29.9 to 77.1 ng/mL and the half-life (Period 2 (N=10), 24 h sampling, Mean ± SD) was 10.6 ± 2.9 h. It also gave a half-life (Period 2 (N=10), 24 h sampling, Range) of 8.01 to 14.3 h, an AUC(0-t) (Period 2 (N=10), Mean ± SD, read-out: AUC0-24) of 681 ± 142 ng·h/mL and a Cmax (Period 2 (N=10), Mean ± SD, read-out: Cmax) of 58.3 ± 9.94 ng/mL. It also gave a Tmax (Period 2 (N=10), Median) of 7.83 h, a Tmax (Period 2 (N=10), Range) of 1.92 to 8.15 h and an AUC(0-t) (Period 2 (N=10), Range, read-out: AUC0-24) of 358 to 869 ng·h/mL. It also gave a Cmax (Period 2 (N=10), Range, read-out: Cmax) of 46.2 to 79.4 ng/mL, a concentration at 2 h (Placebo Treatment Period (carry-over), 2 h, Mean, read-out: Compound A Plasma Concentration) of 5.46 ng/mL and a concentration at 4 h (Placebo Treatment Period (carry-over), 4 h, Mean, read-out: Compound A Plasma Concentration) of 5.17 ng/mL. It also gave a concentration at 6 h (Placebo Treatment Period (carry-over), 6 h, Mean, read-out: Compound A Plasma Concentration) of 5.28 ng/mL, a CL/F (equivalent of 97.5 mL/h/kg, read-out: Body weight normalized clearance (CL/F)) of ~1.6 mL/min/kg and a Cmax (subjects who received placebo in Period 2, mean, read-out: Cmax of Compound A in placebo treatment period) of 5.84 ng/mL. It also gave a Cmax (subjects who received placebo in Period 2, range, read-out: Cmax of Compound A in placebo treatment period) of 3.34 to 9.61 ng/mL.
